Key:
[1] = biological target: human RORγt ligand binding domain (RORγt LBD) (Homo sapiens (Human), UniProt P51449); assay: RORγt ThermoFluor assay
[2] = biological target: full-length human RORγt (GAL4-DBD-RORγt fusion) in HEK293T cells (Homo sapiens (Human), UniProt P51449); assay: RORγt (full-length human) reporter assay, conditions A or B; type: cell-based; conditions: for IC50: HEK293T cells, read-out: RORγt (FL) Reporter Assay A or B, IC50; for inhibition at 3 µM: 3 μM compound concentration (footnote *)
full-length human RORγt (GAL4-DBD-RORγt fusion) in HEK293T cells, sequence (P51449 other isoform, or with tags, fused parts or gaps): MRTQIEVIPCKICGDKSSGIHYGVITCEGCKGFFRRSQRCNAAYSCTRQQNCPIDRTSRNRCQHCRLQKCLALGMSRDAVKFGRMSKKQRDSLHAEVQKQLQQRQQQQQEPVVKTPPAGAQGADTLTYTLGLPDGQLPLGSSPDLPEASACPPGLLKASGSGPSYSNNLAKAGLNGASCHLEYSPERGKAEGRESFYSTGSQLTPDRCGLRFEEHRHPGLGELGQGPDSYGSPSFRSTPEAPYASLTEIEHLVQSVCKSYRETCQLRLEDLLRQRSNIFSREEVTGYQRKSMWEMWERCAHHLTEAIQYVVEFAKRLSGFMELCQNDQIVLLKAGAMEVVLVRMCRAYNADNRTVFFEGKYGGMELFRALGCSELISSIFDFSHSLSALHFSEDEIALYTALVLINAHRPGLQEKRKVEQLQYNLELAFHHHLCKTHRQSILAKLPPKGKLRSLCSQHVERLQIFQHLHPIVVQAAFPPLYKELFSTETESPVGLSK
Method in brief: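 HEK293T cells expressing GAL4-DBD-RORγt fusion (96- or 384-well formats, DMEM/10% FBS) exposed to compound overnight (16–20 h). Firefly luciferase normalized to DMSO and saturating reference compound, then to Renilla; IC50 from dose curve, % inhibition versus DMSO.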

[3] = test system: IL-17 production by human CD4+ T cells under Th17 differentiation; assay: Human Th17 assay (IL-17 production by CD4 T cells); type: cell-based; conditions: 72 h, IL-17 after 3 days
Text: The human Th17 assay tests the effect of RORγt modulatory compounds on IL-17 production by CD4 T cells under conditions which favor Th17 differentiation. Total CD4^+ T cells were isolated from the peripheral blood mononuclear cells (PBMC) of healthy donors using a CD4^+ T cell isolation kit II, following the manufacturer's instructions (Miltenyi Biotec). Cells were resuspended in a medium of RPMI-1640 supplemented with 10% fetal bovine serum, penicillin, streptomycin, glutamate, and β-mercaptoethanol and were added to 96-well plates at 1.5×10^5 per 100 μL per well. 50 μL of compound at titrated concentrations in DMSO were added into each well at final DMSO concentration at 0.2%. Cells were incubated for 1 hour, then 50 μL of Th17 cell differentiation medium was added to each well. The final concentrations of antibodies and cytokines (R&D Systems) in differentiation medium were: 3×10^6/mL anti-CD3/CD28 beads (prepared using human T cell activation/expansion kit, Miltenyi Biotec), 10 μg/mL anti-IL4, 10 μg/mL anti-IFNγ, 10 ng/mL IL1β, 10 ng/mL IL23, 50 ng/mL IL6, 3 ng/mL TGFβ and 20 U/mL IL2. Cells were cultured at 37° C. and 5% CO2 for 3 days. Supernatants were collected and the accumulated IL-17 in culture was measured by using MULTI-SPOT® Cytokine Plate following manufacture's instruction (Meso Scale Discovery). The plate was read using Sector Imager 6000, and IL-17 concentration was extrapolated from the standard curve. The IC50s were determined by GraphPad.

[4] = test system: Th17-dependent learned helplessness; conditions: mice; cited from earlier work
[5] = test system: obese diabetic mice; conditions: cited from earlier work
[6] = HEK-293T, read-out: RORγt (FL) Reporter Assay A or B, % inhibition

human RORγt ligand binding domain (RORγt LBD), sequence (P51449 other isoform, or with tags, fused parts or gaps): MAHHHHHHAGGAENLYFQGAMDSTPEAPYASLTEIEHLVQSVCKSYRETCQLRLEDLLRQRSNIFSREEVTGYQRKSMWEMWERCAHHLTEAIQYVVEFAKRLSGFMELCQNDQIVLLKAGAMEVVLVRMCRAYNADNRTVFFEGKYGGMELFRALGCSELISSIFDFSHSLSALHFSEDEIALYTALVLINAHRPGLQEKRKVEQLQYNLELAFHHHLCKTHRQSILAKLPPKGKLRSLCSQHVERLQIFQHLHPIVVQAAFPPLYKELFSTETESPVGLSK

SMILES | Kd [1] | IC50 [2] | inhibition at 3 µM [2, 6] | IC50 [3] | inhibition at 2 µM ([2]; HEK-293T, 2 μM compound concentration, read-out: RORγt (FL) Reporter Assay A or B, % inhibition) | Th17-dependent learned helplessness [4] | body weight [5] | fat mass [5] | food intake [5] | insulin sensitivity [5]
CCc1cc(C[C@@H](C)C(F)(F)F)ncc1-c1c(Cl)c(C(=O)NC[C@H]2CC[C@H](S(C)(=O)=O)CC2)nn1CC (relative stereo) [Example 57, 4-Chloro-1-ethyl-5-(4-ethyl-6-((R*)-3,3,3-trifluoro-2-methylpropyl)pyridin-3-yl)-N-((1r,4R)-4-(methylsulfonyl)cyclohexyl)methyl)-1H-pyrazole-3-carboxamide] | 20 nM | 340 nM | 43% | 450 nM |  |  |  |  |  | 
CCc1cc(C[C@@H](C)C(F)(F)F)ncc1-c1c(C)c(C(=O)NC[C@H]2CC[C@H](S(C)(=O)=O)CC2)nn1CC (relative stereo) [Example 58, 1-Ethyl-5-(4-ethyl-6-((R*)-3,3,3-trifluoro-2-methylpropyl)pyridin-3-yl)-4-methyl-N-((1r,4R)-4-(methylsulfonyl)cyclohexyl)methyl)-1H-pyrazole-3-carboxamide] | 43 nM | > 2900 nM | 23% | 730 nM |  |  |  |  |  | 
CCc1cc(C[C@@H](C)C(F)(F)F)ncc1-c1c(Cl)c(C(=O)NC[C@]2(O)CC[C@@H](S(C)(=O)=O)CC2)nn1CC (single isomer, unassigned) [Example 56, 4-Chloro-1-ethyl-5-(4-ethyl-6-((R*)-3,3,3-trifluoro-2-methylpropyl)pyridin-3-yl)-N-(((1s,4S)-1-hydroxy-4-(methylsulfonyl)cyclohexyl)methyl)-1H-pyrazole-3-carboxamide] | 120 nM | 2300 nM | 30% | 370 nM |  |  |  |  |  | 
CCn1nc(C(=O)NC[C@H]2CC[C@H](S(C)(=O)=O)CC2)c(Cl)c1-c1cnc(C[C@H](C)C(F)(F)F)cc1OC (single isomer, unassigned) [Example 62, 4-Chloro-1-ethyl-5-(4-methoxy-6-((S*)-3,3,3-trifluoro-2-methylpropyl)pyridin-3-yl)-N-((1r,4r)-4-(methylsulfonyl)cyclohexyl)methyl)-1H-pyrazole-3-carboxamide] | 17 nM | 180 nM |  | 81 nM | 89% |  |  |  |  | 
CCn1nc(C(=O)NC[C@H]2CC[C@H](S(C)(=O)=O)CC2)c(C)c1-c1cnc(CC(C)(C)C(F)(F)F)cc1C(F)F [Example 29, 5-(4-(Difluoromethyl)-6-(3,3,3-trifluoro-2,2-dimethylpropyl)pyridin-3-yl)-1-ethyl-4-methyl-N-(((1r,4r)-4-(methylsulfonyl)cyclohexyl)methyl)-1H-pyrazole-3-carboxamide] | 24 nM | 360 nM | 39% | 210 nM |  |  |  |  |  | 
CC(=O)Nc1nc(C)c(S(=O)(=O)Nc2ccc(C(O)(C(F)(F)F)C(F)(F)F)cc2)s1 [SR1001] |  |  |  |  |  | reduced Th17-dependent learned helplessness |  |  |  | 
CC(=O)N1CCN(Cc2ccc(-c3ccc(C(O)(C(F)(F)F)C(F)(F)F)cc3)cc2)CC1 [SR1555] |  |  |  |  |  |  | reduced body weight | significant reduction in fat mass | modest reduction in food intake | improved insulin sensitivity

Continued, in another order:

Kd [1] | IC50 [2] | inhibition at 3 µM [2, 6] | IC50 [3] | SMILES | inhibition at 2 µM ([2]; HEK-293T, 2 μM compound concentration, read-out: RORγt (FL) Reporter Assay A or B, % inhibition) | Th17-dependent learned helplessness [4] | body weight [5] | fat mass [5] | food intake [5] | insulin sensitivity [5]
11 nM | 56 nM | 100% | 51 nM | CCn1nc(C(=O)NC[C@]2(O)CC[C@@H](S(C)(=O)=O)CC2)c(C)c1-c1cnc(CC(C)(C)C(F)(F)F)cc1OC(F)F [Example 8, 5-(4-(Difluoromethoxy)-6-(3,3,3-trifluoro-2,2-dimethylpropyl)pyridin-3-yl)-1-ethyl-N-(((1s,4s)-1-hydroxy-4-(methylsulfonyl)cyclohexyl)methyl)-4-methyl-1H-pyrazole-3-carboxamide] |  |  |  |  |  | 
0.75 nM | 8.1 nM | 117% | 11 nM | CCn1nc(C(=O)NC[C@H]2CC[C@H](S(C)(=O)=O)CC2)c(Cl)c1-c1cnc(CC(C)(C)C(F)(F)F)cc1OC(F)F [Example 9, 4-Chloro-5-(4-(difluoromethoxy)-6-(3,3,3-trifluoro-2,2-dimethylpropyl)pyridin-3-yl)-1-ethyl-N-(((1r,4r)-4-(methylsulfonyl)cyclohexyl)methyl)-1H-pyrazole-3-carboxamide] |  |  |  |  |  | 
3.2 nM | 14 nM | 98% | 48 nM | CCn1nc(C(=O)NC[C@]2(O)CC[C@@H](S(C)(=O)=O)CC2)c(Cl)c1-c1cnc(CC(C)(C)C(F)(F)F)cc1OC(F)F [Example 10, 4-Chloro-5-(4-(difluoromethoxy)-6-(3,3,3-trifluoro-2,2-dimethylpropyl)pyridin-3-yl)-1-ethyl-N-(((1s,4s)-1-hydroxy-4-(methylsulfonyl)cyclohexyl)methyl)-1H-pyrazole-3-carboxamide] |  |  |  |  |  | 
2.2 nM | 11 nM | 91% | 38 nM | CCn1nc(C(=O)NC[C@H]2CC[C@H](S(C)(=O)=O)CC2)c(C)c1-c1cnc(CC(C)(C)C(F)(F)F)cc1OC(F)F [Example 13, 5-(4-(Difluoromethoxy)-6-(3,3,3-trifluoro-2,2-dimethylpropyl)pyridin-3-yl)-1-ethyl-4-methyl-N-(((1r,4r)-4-(methylsulfonyl)cyclohexyl)methyl)-1H-pyrazole-3-carboxamide] |  |  |  |  |  | 
3.5 nM | 21 nM | 98% | 34 nM | CCn1nc(C(=O)NC[C@H]2CC[C@H](S(C)(=O)=O)CC2)c(Cl)c1-c1cnc(CC(C)(C)C(F)F)cc1OC(F)F [Example 37, 4-Chloro-5-(6-(3,3-difluoro-2,2-dimethylpropyl)-4-(difluoromethoxy)pyridin-3-yl)-1-ethyl-N-(((1r,4r)-4-(methylsulfonyl)cyclohexyl)methyl)-1H-pyrazole-3-carboxamide] |  |  |  |  |  | 

Reference: patent US11034658B2, “Pyridinyl pyrazoles as modulators of RORγT” (Janssen Pharmaceutica NV, priority 2018, dated 2021)
